Test results: patent publication US10947188B2, “Small molecule ferroptosis inducers” (THE TRUSTEES OF COLUMBIA UNIVERSITY IN THE CITY OF NEW YORK, priority 2016, dated 2021)

System: BJeLR
Experiment: Modulatory profiling: Alamar Blue viability, lethal compound cotreated with death modulator (EC50, AUC)
Format: cell-based, human
Parameters: AUC, modulator BJ.Gd3+ / AUC, modulator BJ.LNAME / AUC, modulator BJ.Lmin / AUC, modulator BJ.3MA / AUC, modulator BJ.ALLN / AUC, modulator BJ.Boc D / AUC, modulator BJ.CHX / AUC, modulator BJ.Co2+ / AUC, modulator BJ.Nec-1 / AUC, modulator BJ.Pepstatin / AUC, modulator BJ.TLCK / AUC, modulator BJ.atoc / AUC, modulator BJ.trolox / AUC, modulator BJ.zVAD: unit not given beside the values
Conditions: BJeLR cells, modulatory profile value (AUC); for AUC, modulator BJ.3MA: lethal compound cotreated with modulator 3MA; for AUC, modulator BJ.ALLN: lethal compound cotreated with modulator ALLN; for AUC, modulator BJ.Boc D: lethal compound cotreated with modulator Boc D; for AUC, modulator BJ.CHX: lethal compound cotreated with modulator CHX; for AUC, modulator BJ.Co2+: lethal compound cotreated with modulator Co2+; for AUC, modulator BJ.DPQ: lethal compound cotreated with modulator DPQ; for AUC, modulator BJ.Gd3+: lethal compound cotreated with modulator Gd3+; for AUC, modulator BJ.LNAME: lethal compound cotreated with modulator LNAME; for AUC, modulator BJ.Lmin/NAD+: lethal compound cotreated with modulator Lmin/NAD+; for AUC, modulator BJ.Lmin: lethal compound cotreated with modulator Lmin; for AUC, modulator BJ.NAD+: lethal compound cotreated with modulator NAD+; for AUC, modulator BJ.NMMA: lethal compound cotreated with modulator NMMA; for AUC, modulator BJ.Nec-1: lethal compound cotreated with modulator Nec-1; for AUC, modulator BJ.Pepstatin: lethal compound cotreated with modulator Pepstatin; for AUC, modulator BJ.TLCK: lethal compound cotreated with modulator TLCK; for AUC, modulator BJ.atoc: lethal compound cotreated with modulator atoc; for AUC, modulator BJ.trolox: lethal compound cotreated with modulator trolox; for AUC, modulator BJ.zVAD: lethal compound cotreated with modulator zVAD

Row | SMILES | AUC, modulator BJ.3MA | AUC, modulator BJ.ALLN | AUC, modulator BJ.Boc D | AUC, modulator BJ.CHX | AUC, modulator BJ.Co2+ | AUC, modulator BJ.DPQ | AUC, modulator BJ.Gd3+ | AUC, modulator BJ.LNAME | AUC, modulator BJ.Lmin/NAD+ | AUC, modulator BJ.Lmin | AUC, modulator BJ.NAD+ | AUC, modulator BJ.NMMA | AUC, modulator BJ.Nec-1 | AUC, modulator BJ.Pepstatin | AUC, modulator BJ.TLCK | AUC, modulator BJ.atoc | AUC, modulator BJ.trolox | AUC, modulator BJ.zVAD
1 | CC[C@@]1(O)C(=O)OCc2c1cc1n(c2=O)Cc2cc3ccccc3nc2-1 [Camptothecin] | −0.02027 | 0.03368 | 0.07983 | 0.1233 | 0.02899 | −0.01119 | −0.007898 | 0.003206 | 0.1164 | 0.02947 | 0.112 | −0.006852 | 0.02477 | 0.01408 | 0.02306 | 0.01158 | 0.04874 | 0.08241
2 | COc1cc2c(c(OC)c1OC)-c1ccc(OC)c(=O)cc1[C@@H](NC(C)=O)CC2 [Colchicine] | 0.003026 | −0.03356 | −0.0009082 | 0.161 | 0.1688 | −0.03053 | −0.01061 | −0.008548 | 0.1409 | 0.05808 | 0.1128 | −0.005221 | −0.04443 | 0.003669 | −0.01338 | −0.02812 | −0.004229 | 0.05702
3 | CN(C)CCCOS(=O)(=O)c1ccc(N2CCC(c3ccc(Cl)cc3)=N2)cc1 [CIL40] | 0.1131 | −0.02592 | −0.05607 | −0.1423 | 0.03348 | 0.01887 | −0.004738 | 0.002197 | −0.06069 | −0.05273 | 0.005587 | 0.05461 | 0.02442 | −0.01642 | −0.05358 | 0.05022 | 0.03943 | 0.007977
4 | COc1cc([C@@H]2c3cc4c(cc3[C@H](O)[C@H]3COC(=O)[C@H]23)OCO4)cc(OC)c1OC [Podophyllotoxin] | −0.01267 | −0.003673 | 0.003542 | 0.1228 | 0.09497 | −0.03896 | 0.01784 | 0.005868 | 0.1012 | 0.05457 | 0.09627 | −0.007043 | −0.04167 | 0.02214 | −0.02042 | 0.007072 | −0.01282 | 0.0496
5 | CCCCNc1cc(C)nc(NCc2ccccc2)n1 [CIL18] | 0.0654 | −0.04507 | −0.01841 | −0.01582 | 0.08943 | −0.01318 | −0.01659 | −0.01628 | −0.0502 | −0.05505 | 0.00749 | −0.02371 | 0.0226 | 0.04724 | −0.03824 | −0.0004228 | 0.0395 | −0.005402
6 | CCOc1ccccc1-n1c(C(C)N2CCN(C(=O)COc3ccc(Cl)cc3)CC2)nc2ccccc2c1=O (stereo not drawn) [erastin, reference compound] | 0.09348 | −0.05751 | −0.0006165 | 0.09081 | −0.1704 | −0.005058 | −0.0388 | −0.03971 | 0.1538 | 0.1115 | −0.02334 | −0.05625 | 0.1665 | 0.1892 | 0.0155 | 0.3276 | 0.2492 | −0.005301
7 | COc1cccc2c1C(=O)c1c(O)c3c(c(O)c1C2=O)C[C@@](O)(C(=O)CO)C[C@@H]3O[C@H]1C[C@H](N)[C@H](O)[C@H](C)O1 [Doxorubicin] | 0.03113 | 0.01555 | 0.04966 | 0.1412 | 0.1971 | 0.004462 | −0.01105 | 0.01382 | 0.1477 | 0.05475 | 0.1339 | −0.007486 | −0.003677 | 0.01775 | 0.03307 | 0.01689 | 0.01164 | 0.05543
8 | O=c1c(N2CCCC2)c(Cl)cnn1-c1ccccc1 [CIL20] | 0.055 | −0.09098 | −0.06373 | −0.009677 | 0.04763 | −0.02696 | 0.04266 | −0.001747 | −0.03734 | −0.02603 | 0.03043 | −0.01046 | 0.0115 | −0.002516 | −0.00743 | −0.005113 | 0.02308 | −0.04036
9 | O=P(Oc1ccccc1)(Oc1ccccc1)O[C@@H]1C=CS(=O)(=O)C1 [CIL44] | 0.05756 | −0.0588 | −0.03963 | 0.1553 | 0.02387 | 0.05604 | 0.005556 | 0.008981 | −0.04975 | 0.03065 | −0.04167 | 0.02894 | −0.01119 | 0.002455 | −0.03963 | 0.009119 | −0.03989 | −0.01682
10 | CC[C@]1(O)C[C@@H]2CN(CCc3c([nH]c4ccccc34)[C@@](C(=O)OC)(c3cc4c(cc3OC)N(C)[C@H]3[C@@](O)(C(=O)OC)[C@H](OC(C)=O)[C@]5(CC)C=CCN6CC[C@]43[C@@H]65)C2)C1 [Vinbiastine] | 0.0131 | −0.07228 | 0.001717 | 0.2328 | 0.1876 | −0.0312 | 0.008351 | −0.0006349 | 0.1715 | 0.06584 | 0.1373 | 0.008107 | −0.06176 | 0.002398 | −0.003672 | 0.1487 | −0.01145 | 0.01552
